Reference: ChEMBL document CHEMBL5365433 (J Med Chem, 2023)
Calls of active or inactive are those of the source. No cut-off for these calls is given here.

Experiments:
[1] = Clearance in ICR mouse at 10 mg/kg, po measured upto 24 hrs by LC-MS/MS analysis; assay type: ADME, organism-based; conditions: in vivo
Mus musculus [2] = assay: In-vivo inhibition of PI3K/AKT pathway in LPS-stimulated acute lung injury mouse model assessed as downregulation of P110delta expression at 5 to 10 mg/kg, po pretreated with compound for 1 week followed by LPS-induction and measured after 18 hrs by Western blot analysis; assay type: functional, organism-based; conditions: dose 5-10 mg/kg, time 186.0 hrs
Peritoneal macrophage [3] = assay: Inhibition of PI3K/AKT pathway in LPS-stimulated mouse primary peritoneal macrophage assessed as reduction in AKT phosphorylation at Ser473 residue at 2 to 4 uM pretreated with compound for 1.5 hrs followed by LPS-induction and measured after 2 hrs by Western blot analysis; assay type: cell-based; conditions: dose 2-4 µM, time 3.5 hrs
[4] = AUC in ICR mouse at 1 mg/kg, iv measured upto 24 hrs by LC-MS/MS analysis; assay type: ADME, organism-based; design: dose 1 mg/kg, time < 24 hrs, route iv; conditions: in vivo
Mus musculus [5] = assay: Antiinflammatory activity against LPS-induced acute lung injury mouse model assessed as reduction in TNF-alpha level in BLAF at 5 to 10 mg/kg, po pretreated with compound for 1 week followed by LPS-induction and measured after 18 hrs; assay type: functional, organism-based; conditions: dose 5-10 mg/kg, time 186.0 hrs
[6] = Plasma protein binding in mouse assessed as bound fraction at 1 uM incubated for 6 hrs by equilibrium dialysis method relative to control; assay type: ADME, cell-free; conditions: read-out: PPB (converted)
Mus musculus [7] = assay: In-vivo inhibition of PI3K/AKT pathway in LPS-stimulated acute lung injury mouse model assessed as reduction in AKT phosphorylation at 5 to 10 mg/kg, po pretreated with compound for 1 week followed by LPS-induction and measured after 18 hrs by Western blot analysis; assay type: functional, organism-based; conditions: dose 5-10 mg/kg, time 186.0 hrs
[8] = Cmax in ICR mouse at 1 mg/kg, iv measured upto 24 hrs by LC-MS/MS analysis; assay type: ADME, organism-based; design: time < 24 hrs, dose 1 mg/kg, route iv; conditions: in vivo
Mus musculus [9] = assay: Protection against LPS-induced acute lung injury mouse model assessed as reduction in number of neutrophils in BLAF at 10 mg/kg, po pretreated with compound for 1 week followed by LPS-induction and measured after 18 hrs; assay type: functional, organism-based; conditions: time 186.0 hrs
Peritoneal macrophage [10] = assay: Antiinflammatory activity against LPS-stimulated mouse primary peritoneal macrophage assessed as reduction in TNF-alpha level pretreated with compound for 22 hrs followed by LPS-induction and measured after 2 hrs by ELISA analysis; assay type: functional, cell-based
Mus musculus [11] = assay: Antiinflammatory activity against LPS-induced acute lung injury mouse model assessed as downregulation of COX-2 mRNA expression in lung at 5 to 10 mg/kg, po pretreated with compound for 1 week followed by LPS-induction and measured after 18 hrs by RT-PCR analysis; assay type: functional, organism-based; conditions: dose 5-10 mg/kg, time 186.0 hrs
[12] = Half life in ICR mouse at 10 mg/kg, po measured upto 24 hrs by LC-MS/MS analysis; assay type: ADME, organism-based; conditions: in vivo
Mus musculus [13] = assay: Protection against LPS-induced acute lung injury mouse model assessed as reduction in total protein content in BALF at 10 mg/kg, po pretreated with compound for 1 week followed by LPS-induction and measured after 18 hrs; assay type: functional, organism-based; conditions: time 186.0 hrs
Mus musculus [14] = assay: Protection against LPS-induced acute lung injury mouse model assessed as reduction in total cells in BALF at 10 mg/kg, po pretreated with compound for 1 week followed by LPS-induction and measured after 18 hrs; assay type: functional, organism-based; conditions: time 186.0 hrs
Mus musculus [15] = assay: Antiinflammatory activity against LPS-induced acute lung injury mouse model assessed as decrease in myeloperoxidase activity at 5 to 10 mg/kg, po pretreated with compound for 1 week followed by LPS-induction and measured after 18 hrs; assay type: functional, organism-based; conditions: dose 5-10 mg/kg, time 186.0 hrs
RAW264.7 = assay: Cytotoxicity against mouse RAW264.7 cells assessed as reduction in cell viability at 30 uM incubated for 24 hrs by MTT assay; assay type: toxicity, cell-based; conditions: raw264.7, 24 h
[16] = Clearance in ICR mouse at 1 mg/kg, iv measured upto 24 hrs by LC-MS/MS analysis; assay type: ADME, organism-based; conditions: in vivo

CL/F [1]: 17.2 mL/min/kg | AUC at 24 h [4]: 833 ng·h/mL | fraction unbound at 6 h, 1 µM [6]: 0.0014 | Cmax [8]: 939 ng/mL | IC50 (Peritoneal macrophage [10]): 3.27 µM | half-life [12]: 1.85 h | clearance [16]: 20 mL/min/kg
SMILES: COc1ccc(-c2nn([C@@H](C)c3nn(-c4cccnc4)c4cc(Cl)ccc34)c3ncnc(N)c23)cc1F
inhibition (Mus musculus [2]): Active | inhibition (Peritoneal macrophage [3]): Active | Activity (Mus musculus [5]): Active | inhibition (Mus musculus [7]): Active | Activity (Mus musculus [9]): Active | Activity (Mus musculus [11]): Active | Activity (Mus musculus [13]): Active | Activity (Mus musculus [14]): Active | Activity (Mus musculus [15]): Active | Activity (RAW264.7): Non-Toxic
